For this experiment, the system named is foregut spheroids (NOG+SB+FGF4+Ch). In words: qRT-PCR of foregut spheroids generated with addition of HH agonist SAG. As to conditions: SAG added to NOG+SB+FGF4+Ch spheres; compared to spheres without SAG. It counts as cell-based, human. As for the experimental part: Based on the observations that stimulating HH and inhibiting FGF signaling strongly enhances NKX2.1 expression while reducing PAX8 expression (FIG. 5), multiple conditions of HH activation and FGF inhibition to induce NKX2.1^HI/PAX8^LO foregut spheroids (NOG/SB/F/Ch) were tested (FIG. 8). […] Therefore, several conditions were also tested that stimulated HH signaling using SAG only, without FGF inhibition. […] Additionally, nuclear NKX2.1 protein expression was found in ECAD+ epithelium which co-expressed endoderm epithelial markers FOXA2 and SOX2 (FIG. 10B, C, FIG. 11). […] Thus, concomitant down-regulation of SOX2 and increased NKX2.1 observed in SAG treated foregut spheroids is consistent with early transcriptional changes that occur during lung specification in mice.
After differentiation into definitive endoderm, cells were incubated in foregut media with NOG, SB, 500 ng/mL FGF4 (R&D Systems), and 2 μM CHIR99021 (Chiron, Stemgent) for 4-6 days. After 4 days with treatment of growth factors, three-dimensional floating spheroids were present in the culture. Three-dimensional spheroids were transferred into Matrigel to support 3D growth as previously described (see, e.g., McCracken K W, et al., Nature Protocols; 2011 Nov. 10; 6(12):1920-8). Briefly, spheroids were embedded in a droplet of Matrigel (BD Bioscience #356237) in one well of a 24 well plate, and incubated at room temperature for 10 minutes. After the Matrigel solidified, foregut media with 1% Fetal bovine serum (FBS, CAT#: 16000-044, Life Technologies) or other growth factors and small molecules were overlaid and replaced every 4 days. Organoids were transferred into new Matrigel droplets every 10 to 15 days.
RNA was extracted from monolayers, spheroids, and organoids using a MagMAX-96 Total RNA Isolation Kit (Life Technologies) and MAG Max Express (Applied Biosystems). RNA quantity and quality were determined spectrophotometrically, using a Nano Drop 2000 (Thermoscientific). Reverse transcription was conducted using the SuperScript VILO kit (Invitrogen), according to manufacturer's protocol. Finally, qRT-PCR was carried out using Quantitect Sybr Green MasterMix (Qiagen) on a Step One Plus Real-Time PCR system (Life Technologies).
For orientation: Quantitative PCR measures a nucleic acid by following its amplification.

Take `CNC1CCC(N(Cc2cccc(-c3ccncc3)c2)C(=O)c2sc3ccccc3c2Cl)CC1` (stereo not drawn) [SAG]: the CDX2 transcript entry is on record as “reduction”, the HHEX transcript result is listed as “not significantly different”, the NKX2.1 transcript entry is reported as “significant increase” and the PAX8 transcript entry was “not significantly different”. Moreover, the PDX1 transcript entry is recorded as “not significantly different” and the SOX2 transcript result is listed as “reduction”.

The values are drawn from US10557124B2, “Compositions and methods for obtaining stem cell derived lung tissue, and related uses thereof” (The Regents of the University of Michigan, priority 2015, dated 2020).
